Activity calls are given as the source filed them. How the calls were made is not given here.
Tested on: rodent carcinogenicity bioassays, tumor incidence
Test: CCRIS carcinogenicity studies
Summary of the method: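 NCI-built, expert-reviewed records of carcinogenicity and related test outcomes (mutagenicity, tumor promotion/inhibition) compiled from published and report sources, historical span 1985-2011, not updated.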

O=NN1CCOC(O)C1 (stereo not drawn)
carcinogen call (Species: MOUSE, Strain/Sex: STRAIN-A/FEMALE, Route: ORAL, Dose: 0, 0.2 UMOL/ML IN DRINKING WATER FOR 10 WK (TOTAL DOSE: 0; 53 UMOL) FOLLOWED BY TAP WATER FOR 20 WK (STUDY DURATION: 30, Dose: 0, 0.2 UMOL/ML IN DRINKING WATER FOR 10 WK (TOTAL DOSE: 0; 53 UMOL) FOLLOWED BY TAP WATER FOR 20 WK (STUDY DURATION: 30, Tumor Site: Type of Lesion: LUNG: TUMORS): active; positive
carcinogen call (Species: RAT, Strain/Sex: F344/FEMALE, Route: GAVAGE, Dose: 0, 22 MG/WK FOR A TOTAL DOSE OF 8.5 MMOL (STUDY DYRATION: 110 WK), Tumor Site: Type of Lesion: LIVER: TUMOR, LUNG: TUMOR): active; positive
carcinogen call (Species: RAT, Strain/Sex: F344/FEMALE, Route: ORAL, Dose: 0, 15, 30 MG/L IN DRINKING WATER 5 D/WK FOR 50 WK (TOTAL DOSE: 0; 0.6; 1.2 MMOL) (STUDY DURATION: 124 WK), Dose: 0, 15, 30 MG/L IN DRINKING WATER 5 D/WK FOR 50 WK (TOTAL DOSE: 0; 0.6; 1.2 MMOL) (STUDY DURATION: 124 WK)): inactive; negative

Cc1cc2c(c3ccc4ccccc4c13)C=C[C@@H](O)[C@@H]2O
carcinogen call (Species: MOUSE, Strain/Sex: ICR/FEMALE, Route: INTRAPERITONEAL, Dose: 8 NMOL/5 µL DMSO ON DAY 1, 16 NMOL/10 µL ON DAY 8, AND 32 NMOL/20 µL ON DAY 15 OF AGE (STUDY DURATION: 35 WK), Tumor Site: Type of Lesion: LUNG: TUMORS, LIVER: TUMORS): active; positive
carcinogen call (Species: MOUSE, Strain/Sex: ICR/MALE, Route: INTRAPERITONEAL, Dose: 8 NMOL/5 µL DMSO ON DAY 1, 16 NMOL/10 µL ON DAY 8, AND 32 NMOL/20 µL ON DAY 15 OF AGE (STUDY DURATION: 35 WK), Tumor Site: Type of Lesion: LUNG: TUMORS): active; positive

CCC1c2ccc(O)cc2C(C)C1c1ccc(O)cc1 (stereo not drawn)
carcinogen call (Species: HAMSTER, Strain/Sex: SYRIAN/MALE, Route: SUBCUTANEOUS IMPLANT, Dose: 0, 20 MG IN PELLETS IMPLANTED EVERY 2.5 MO FOR 9 MO (STUDY DURATION: 9 MO)): inactive; negative

O=[N+]([O-])c1ccc2ccc3cc4ccccc4c4ccc1c2c34
carcinogen call (Species: MOUSE, Strain/Sex: B6C3F1/MALE, Route: INTRAPERITONEAL, Dose: 0, 400 NMOL IN 35 µL DMSO ON DAYS 1 (1/7 TOTAL DOSE), 8 (2/7 TOTAL DOSE), AND 15 (4/7 TOTAL DOSE) AFTER BIRTH (STUDY DUR): inactive; negative
carcinogen call (Species: RAT, Strain/Sex: F344/MALE, Route: SUBCUTANEOUS, Dose: 0, 500, 1000 UG SUSPENDED IN BEESWAX/TRICAPRYLIN (1:1) ONCE (STUDY DURATION: LIFETIME), Dose: 0, 500, 1000 UG SUSPENDED IN BEESWAX/TRICAPRYLIN (1:1) ONCE (STUDY DURATION: LIFETIME)): inactive; negative

NC(Cc1ccc(N(CCCl)CCCl)cc1)C(=O)O (stereo not drawn)
carcinogen call (Species: RAT, Strain/Sex: SWISS/FEMALE, Route: INTRAPERITONEAL, Dose: 10 MG/KG, Tumor Site: Type of Lesion: MAMMARY GLAND: FIBROADENOMA): active; positive

Cc1cc(Cl)ccc1OCC(=O)O
carcinogen call (Species: MOUSE, Strain/Sex: B6C3F1/FEMALE, Route: ORAL, Dose: 0, 20, 100, 500 PPM IN DIET FOR 104 WK (STUDY DURATION: 104 WK), Dose: 0, 20, 100, 500 PPM IN DIET FOR 104 WK (STUDY DURATION: 104 WK)): inactive; negative
carcinogen call (Species: MOUSE, Strain/Sex: B6C3F1/MALE, Route: ORAL, Dose: 0, 20, 100, 500 PPM IN DIET FOR 104 WK (STUDY DURATION: 104 WK), Dose: 0, 20, 100, 500 PPM IN DIET FOR 104 WK (STUDY DURATION: 104 WK)): inactive; negative
carcinogen call (Species: NEWT, Route: IMMERSION, Dose: 0, 100, 200, 400 PPM 4 D/WK FOR 12 MO (STUDY DURATION: 24 MO), Dose: 0, 100, 200, 400 PPM 4 D/WK FOR 12 MO (STUDY DURATION: 24 MO)): inactive; negative
carcinogen call (Species: RAT, Strain/Sex: WISTAR/FEMALE, Route: ORAL, Dose: 0, 20, 80, 320 PPM IN DIET FOR 104 WK (STUDY DURATION: 104 WK), Dose: 0, 20, 80, 320 PPM IN DIET FOR 104 WK (STUDY DURATION: 104 WK)): inactive; negative
carcinogen call (Species: RAT, Strain/Sex: WISTAR/MALE, Route: ORAL, Dose: 0, 20, 80, 320 PPM IN DIET FOR 104 WK (STUDY DURATION: 104 WK), Dose: 0, 20, 80, 320 PPM IN DIET FOR 104 WK (STUDY DURATION: 104 WK)): inactive; negative

OCC1CO1 (stereo not drawn)
carcinogen call (Species: MOUSE, Strain/Sex: B6C3F1/FEMALE, Route: GAVAGE, Dose: 0, 25, 50 MG/KG IN DISTILLED WATER 5 D/WK FOR 103 WK (STUDY DURATION: 105 WK), Dose: 0, 25, 50 MG/KG IN DISTILLED WATER 5 D/WK FOR 103 WK (STUDY DURATION: 105 WK), Tumor Site: Type of Lesion: SUBCUTANEOUS TISSUE: SARCOMA, SARCOMA OR FIBROSARCOMA, MAMMARY GLAND: ADENOCARCINOMA, ADENOMA OR FIBROADENOMA OR ADENOCA): active; positive
carcinogen call (Species: MOUSE, Strain/Sex: B6C3F1/MALE, Route: GAVAGE, Dose: 0, 25, 50 MG/KG IN DISTILLED WATER 5 D/WK FOR 103 WK (STUDY DURATION: 105 WK), Dose: 0, 25, 50 MG/KG IN DISTILLED WATER 5 D/WK FOR 103 WK (STUDY DURATION: 105 WK), Tumor Site: Type of Lesion: SKIN: SQUAMOUS CELL PAPILLOMA, LUNG: ALVEOLAR/BRONCHIOLAR ADENOMA OR CARCINOMA, LIVER: HEPATOCELLULAR ADENOMA, HEPATOCEL, Tumor Site: Type of Lesion: SKIN: SQUAMOUS CELL PAPILLOMA, LUNG: ALVEOLAR/BRONCHIOLAR ADENOMA OR CARCINOMA, LIVER: HEPATOCELLULAR ADENOMA, HEPATOCEL): active; positive
carcinogen call (Species: RAT, Strain/Sex: F344/FEMALE, Route: GAVAGE, Dose: 0, 37.5, 75 MG/KG IN DISTILLED WATER 5 D/WK FOR 103 WK (STUDY DURATION: 104 WK), Dose: 0, 37.5, 75 MG/KG IN DISTILLED WATER 5 D/WK FOR 103 WK (STUDY DURATION: 104 WK), Tumor Site: Type of Lesion: HEMATOPOIETIC SYSTEM: MONONUCLEAR CELL LEUKEMIA, ORAL CAVITY (MOUTH OR TONGUE): SQUAMOUS CELL PAPILLOMA OR CARCINOMA, FO, Tumor Site: Type of Lesion: HEMATOPOIETIC SYSTEM: MONONUCLEAR CELL LEUKEMIA, ORAL CAVITY (MOUTH OR TONGUE): SQUAMOUS CELL PAPILLOMA OR CARCINOMA, FO): active; positive
carcinogen call (Species: RAT, Strain/Sex: F344/MALE, Route: GAVAGE, Dose: 0, 37.5, 75 MG/KG IN DISTILLED WATER 5 D/WK FOR 103 WK (STUDY DURATION: 104 WK), Dose: 0, 37.5, 75 MG/KG IN DISTILLED WATER 5 D/WK FOR 103 WK (STUDY DURATION: 104 WK), Tumor Site: Type of Lesion: SKIN: SEBACEOUS GLAND ADENOMA OR BASAL CELL TUMOR OR SEBACEOUS GLAND ADENOCARCINOMA, FORESTOMACH: SQUAMOUS CELL PAPILLOM): active; positive

— PubChem BioAssay AID1259411 (Chemical Carcinogenesis Research Information System (CCRIS), 2018)
